Test results taken from paper PMC6457190, “Tridecaptin-inspired antimicrobial peptides with activity against multidrug-resistant Gram-negative bacteria” (MedChemComm, 2019).
Where a SMILES comes first, the peptide text is derived from it. [ ]: non-standard residue; d: D form. The star is where a group is joined. d(aIle) = CC[C@H](C)[C@@H](N)C(=O)O; dOrn = NCCC[C@@H](N)C(=O)O; Octanoyl = CCCCCCCC(=O)*; Orn = NCCC[C@H](N)C(=O)O

Experiments:
A. baumannii = type: cell-based, Acinetobacter baumannii; details: 18 h
Description: (§1) IV. Antimicrobial testing
(§2) All minimum inhibitory concentrations (MICs) were determined according to Clinical and Standards Laboratory Institute (CLSI) guidelines. Briefly, peptides were dissolved in Muller-Hinton Broth (MHB) and serial dilutions made across a 96 well plate. Each well was inoculated with a suspension of the required bacterial strain to reach a final inoculum of 5 x 10^5 colony forming units per mL. The MIC was taken as the lowest concentration with no visible growth after 18 hours.
(§3) V. Additional information on multidrug resistant strains
(§4) Organism Resistant Susceptible
Acinetobacter baumannii Cefotaxime Imipenem
Isolated from sewage contaminated Tetracycline Colistin water (Tripoli, Lebanon). Ofloxacin Tobramycin
(§5) Acinetobacter baumannii ACM 11 Ceftazimide
(§6) Acinetobacter baumannii ACM 29 Ceftazimide
(§7) Isolated from peritoneum of 3-year- Imipenem

Equine erythrocytes = type: cell-based, horse; details: red cells of equine, 100 μg mL^–1
Description: Having assessed the antimicrobial activity of peptides 1–8 we next proceeded to assess their haemolytic activities (Table 2). Haemolytic activity was tested at 100 μg mL^–1, as the concentration required for haemolysis should be higher than antimicrobial MICs. Equine erythrocytes were exposed to peptides 1–8 and incubated for 30 min at 37 °C (Table 2). […] The low haemolytic activity observed for Oct-TriA2 (2,8-D-Lys, 7-Lys) (8) is consistent with its poor antimicrobial activity. […]
VI. Haemolytic activity assays
A 96-well plate was first prepared to contain phosphate-buffered saline (PBS) solutions (100 μL) of tridecaptin analogues 1 – 8 (200 μg/mL) (experiments run in triplicate). 0.1 % Triton X-100 (100 μL) was used as a positive control, while PBS (100 μL) was used as a blank. After the plate had been prepared, defibrinated horse blood (0.5 mL, VWR International) was diluted with phosphate-buffered saline (9.5 mL) and gently shaken. The resulting mixture was centrifuged (5600 rpm, 5 min) using a Thermo Scientific Heraeus Labofuge 200 centrifuge and the supernatant carefully removed. This process was repeated three more times to remove any free hemoglobin. The resulting erythrocyte pellet was gently resuspended in 9.5 mL of PBS. Aliquots of the resulting mixture (100 μL) were added to the appropriate wells on the 96-well plate using a multichannel pipette and the plate incubated at 37 °C for 30 min. The samples were gently mixed by pipetting, and 20 μL of each was added to 200 μL of PBS. Once again, the samples were gently mixed. The diluted samples were then centrifuged (7000 rpm, 5 min) using a SciSpin MINI Microfuge. Supernatant (150 μL) from each sample was added to a new 96-well plate. The absorbance of each sample was individually measured at 415 nm using a Denovix DS-11 FX+ Spectrophotometer. Percent hemolysis of the peptides was calculated relative to Triton X- 100, while the PBS negative control was used as a blank.

E. cloacae = type: cell-based, Enterobacter cloacae; details: 18 h
Description: as §1, §2

A. baumannii ACM 11 = type: cell-based, Acinetobacter baumannii; details: ACM 11, 18 h
Description: as §1, §2, §3, §4, §5

A. baumannii ACM 29 = type: cell-based, Acinetobacter baumannii; details: ACM 29, 18 h
Description: as §1, §2
V. Additional information on multidrug resistant strains […]
Organism Resistant Susceptible […]
as §6, §7

P. pseudoalcaligenes = type: cell-based, Pseudomonas pseudoalcaligenes; details: 18 h
Description: as §1, §2

K. pneumoniae IMP 177 = type: cell-based, Klebsiella pneumoniae; details: IMP 177, 18 h
Description: as §1, §2

K. pneumoniae IMP 204 = type: cell-based, Klebsiella pneumoniae; details: IMP 204, 18 h
Description: as §1, §2

K. pneumoniae IMP 485 = type: cell-based, Klebsiella pneumoniae; details: IMP 485, 18 h
Description: as §1, §2

K. pneumoniae IMP 216 = type: cell-based, Klebsiella pneumoniae; details: IMP 216, 18 h
Description: as §1, §2

K. pneumoniae = type: cell-based, Klebsiella pneumoniae; details: 18 h
Description: as §1, §2

K. pneumoniae IMP 170 = type: cell-based, Klebsiella pneumoniae; details: IMP 170, 18 h
Description: as §1, §2

[1] = system: panel of Gram-negative bacteria; experiment: MIC, summary over the panel of strains; type: cell-based; details: highest concentration tested 100 μg mL^–1, all strains of the panel
From the text: Previous studies have shown that the tridecaptins have strong activity against clinically relevant Gram-negative strains.[8],[14] This includes A. baumannii and Enterobacteriaceae such as Klebsiella pneumoniae and Enterobacter spp., however P. aeruginosa is less susceptible. The World Health Organization (WHO) currently lists carbapenemase-producing strains of these Gram-negative bacteria as critical priority pathogens. We therefore decided to synthesize a library of novel tridecaptin analogues containing conservative substitutions at positions 2, 7, 8 and/or 12, and evaluate their activity against a panel of these strains (Table 1). This panel of Gram-negative bacteria contains environmental samples isolated from sewage contaminated water in Lebanon, as well as several strains isolated from patients at clinical settings. […]
MilliQ water and solvent B = 0.1 % TFA in ACN. […] High resolution mass spectrometry (HRMS) spectra of all peptides were recorded by Analytical Services and Environmental Projects (ASEP) at Queen’s University Belfast on a Waters LCT Premier ToF mass spectrometer using the electrospray ionisation (ESI) technique. […]
All minimum inhibitory concentrations (MICs) were determined according to Clinical and Standards Laboratory Institute (CLSI) guidelines. […]

Compound	Peptide MIC (A. baumannii) [μg mL^–1]	% haemolysis (Equine erythrocytes) [%]	Peptide MIC (E. cloacae) [μg mL^–1]	Peptide MIC (A. baumannii ACM 11) [μg mL^–1]	Peptide MIC (A. baumannii ACM 29) [μg mL^–1]	Peptide MIC (P. pseudoalcaligenes) [μg mL^–1]	Peptide MIC (K. pneumoniae IMP 177) [μg mL^–1]	Peptide MIC (K. pneumoniae IMP 204) [μg mL^–1]	Peptide MIC (K. pneumoniae IMP 485) [μg mL^–1]	Peptide MIC (K. pneumoniae IMP 216) [μg mL^–1]	Peptide MIC (K. pneumoniae) [μg mL^–1]	Peptide MIC (K. pneumoniae IMP 170) [μg mL^–1]	antimicrobial activity at the highest concentrations tested [1]
CCCCCCCC(=O)N[C@@H](C(=O)N[C@H](CCCN)C(=O)NCC(=O)N[C@H](CO)C(=O)N[C@H](Cc1c[nH]c2ccccc12)C(=O)N[C@@H](CO)C(=O)N[C@@H](CCCN)C(=O)N[C@H](CCCN)C(=O)N[C@@H](Cc1ccccc1)C(=O)N[C@@H](CCC(=O)O)C(=O)N[C@H](C(=O)N[C@@H](C(=O)N[C@@H](C)C(=O)O)[C@@H](C)CC)C(C)C)C(C)C [Peptide 5, Oct-TriA1 (2,8-D-Orn, 7-Orn)] (Octanoyl-[dV][dOrn]G[dS][dW]S[Orn][dOrn]FEV[d(aIle)]A-OH)	12.5	77.5	6.25	50	50	50	25	25	25	6.25	12.5	25	
CCCCCCCC(=O)N[C@@H](C(=O)N[C@H](CCCCN)C(=O)NCC(=O)N[C@H](CO)C(=O)N[C@H](Cc1c[nH]c2ccccc12)C(=O)N[C@@H](CO)C(=O)N[C@@H](CCCCN)C(=O)N[C@H](CCCCN)C(=O)N[C@@H](Cc1ccccc1)C(=O)N[C@@H](CCC(=O)O)C(=O)N[C@H](C(=O)N[C@@H](C(=O)N[C@@H](C)C(=O)O)[C@@H](C)CC)C(C)C)C(C)C [Peptide 6, Oct-TriA1 (2,8-D-Lys, 7-Lys)] (HELM PEPTIDE1{[CCCCCCCC(=O)[*:2]].[dV].[dK].G.[dS].[dW].S.K.[dK].F.E.V.[CC[C@H](C)[C@@H](N[*:1])C(=O)[*:2]].A}$$$$V2.0)	6.25	86.4	25	25	25	100	25	50	25	25	50	50	
CCCCCCCC(=O)N[C@@H](C(=O)N[C@H](CCCCN)C(=O)NCC(=O)N[C@H](CO)C(=O)N[C@H](Cc1c[nH]c2ccccc12)C(=O)N[C@@H](CO)C(=O)N[C@@H](CCCCN)C(=O)N[C@H](CCCCN)C(=O)N[C@@H](Cc1ccccc1)C(=O)N[C@@H](CCC(=O)O)C(=O)N[C@H](C(=O)N[C@@H](C(=O)N[C@@H](C)C(=O)O)C(C)C)C(C)C)C(C)C [Peptide 8, Oct-TriA2 (2,8-D-Lys, 7-Lys)] (HELM PEPTIDE1{[CCCCCCCC(=O)[*:2]].[dV].[dK].G.[dS].[dW].S.K.[dK].F.E.V.[dV].A}$$$$V2.0)	>100	2.8	>100	>100	>100	>100	>100	>100	>100	>100	>100	>100	no antimicrobial activity
